The source of these data is PMC8080595, “Discovery of a novel RORγ antagonist with skin-restricted exposure for topical treatment of mild to moderate psoriasis” (Scientific Reports, 2021).

A short description of series [1]: Dermal PK, BALB/c mouse. In kind it is in vivo. The conditions noted are these: for Exposure in plasma: 2% in Vaseline, topical. How it is done: (§1) The dermal PK studies of Compound 1 in Vaseline were performed in dorsal skin of female C57BL/6 and male BALB/c mice via topical route. The skin (1.5 cm × 2 cm) was shaved one day prior to the dosing. At tissue collecting time point, the skin surface was decontaminated (twice with hand soap, twice with water, alternatively, and dried with tissue swabs). Stratum corneum is removed with tape strips for five times. The tissues were homogenized for PK analyses of Compound 1 by LC/MS.

Series [2] can be described thus: Liver microsomal stability, mouse. In kind it is in vitro ADME. The conditions noted are these: liver microsomes, pH 7.4, read-out: Liver microsomal stability, t1/2, Mouse. How it is done: (§2) The compound was mixed with 0.5 mg/ml human liver microsome (Thermal Fisher) at a final concentration of 1 µM in 100 mM potassium phosphate buffer, pH 7.4. The reactions were initiated by the addition of 1 mM NADPH. Samples in duplicate were incubated at 37 °C with mixing. 100 µL aliquots were transferred after 0, 5, 10, 30, 45, 60 minutes to a new tube with 300 µL acetonitrile, incubated on ice for 30 minutes, centrifuged at 1800×g at 4 °C for 10 minutes. The supernatants were transferred to glass vials subjected to LC/MS analysis. Peak areas were measured to calculate half-life according to the formula t1/2 = − 0.693/slope of linear regression analysis of ln [concentration] versus incubation time. Similar methods were applied to access mouse and rat liver microsomal stability of the compounds.
On the technique in general: Liver microsomes are vesicles of endoplasmic reticulum, rich in cytochrome P450 enzymes.

Series [3] in a line: in vivo. The conditions noted are these: female, C57BL/6, mouse. On the procedure:
as §1

Series [4] is described as follows: Liver microsomal stability, rat. In kind it is in vitro ADME. The conditions noted are these: liver microsomes, pH 7.4, read-out: Liver microsomal stability, t1/2, Rat. How it is done:
as §2

SMILES strings stand for the structures.

For the compound `CCS(=O)(=O)c1ccc([C@H](CCO)c2nc3c(Cl)c(N4CCC(F)(F)CC4)c(Cl)cc3[nH]2)cc1` [SHR168442, (S)-3-(4,6-dichloro-5-(4,4-difluoropiperidin-1-yl)-1H-benzo[d]imidazol-2-yl)-3-(4-(ethylsulfonyl)phenyl)propan-1-ol], the Exposure in plasma entry was “blq (below limit of quantitation (< 6 ng/mL))” in series [1] (3 h), “blq (below limit of quantitation (< 6 ng/mL))” in series [1] (6 h) and 7.0 ng/mL in series [3] (3 h). For the same compound, the concentration at 3 h in series [1] (male, BALB/c, mouse, in vivo) was found to be 2460 ng/g; in series [3] (Exposure in plasma), 8.8 ng/mL. In addition, the concentration at 6 h is 4390 ng/g in series [1] (male, BALB/c, mouse, in vivo) and 9710 ng/g in series [3] (Exposure in skin). Also, the results for the half-life at 1 µM in series [2] and in series [4] were 6.2 min and 8.6 min, respectively. Also, the Exposure in skin in series [3] (6 h) was 18,500 ng/g.
